Data from patent publication US6399637B1, “Crystal modification of torasemide” (PLIVA, farmaceutska, kemijska, prehrambena i kozmeticka …, priority 1998, dated 2002).

Columns and labels:
Type in all cases: physicochemical
[1] = Dissolution test of torasemide in water (USP 23); conditions: for % Dissolved torasemide: water, USP 23, 37° C., 50 rpm., 1000 ml
Protocol: (§1) The microcrystallinic modifications I, II and III of torasemide prepared according to Acta Crst. B34 (1978), 1304-1310 and Example 1 were subjected to dissolution testing in water, and in artificial intestinal juice, at 37° C.

[2] = Dissolution test in artificial intestinal juice (USP 23)
Protocol: as §1

[3] = Stability of the crystal modification on storage and at increased humidity
[4] = Intrinsic Dissolution Rate in a model of artificial gastric juice

Cc1cccc(Nc2ccncc2S(=O)(=O)NC(=O)NC(C)C)c1 [Mod. I, N-(1-methylethylaminocarbonyl)-4-(3-methyl-phenylamino)-3-pyridinesulfonamide]
% Dissolved torasemide ([1]; 0 minutes): 0% | % Dissolved torasemide ([1]; 10 minutes): 6.7% | % Dissolved torasemide ([1]; 20 minutes): 13.0% | % Dissolved torasemide ([1]; 30 minutes): 18.5% | % Dissolved torasemide ([1]; 40 minutes): 23.5% | % Dissolved torasemide ([1]; 50 minutes): 28.5% | % Dissolved torasemide ([1]; 60 minutes): 32.8%

Cc1cccc(Nc2ccncc2S(=O)(=O)NC(=O)NC(C)C)c1 [Mod. II, N-(1-methylethylaminocarbonyl)-4-(3-methyl-phenylamino)-3-pyridinesulfonamide]
% Dissolved torasemide ([1]; 0 minutes): 0% | % Dissolved torasemide ([1]; 10 minutes): 15.1% | % Dissolved torasemide ([1]; 20 minutes): 27.8% | % Dissolved torasemide ([1]; 30 minutes): 39.2% | % Dissolved torasemide ([1]; 40 minutes): 48.8% | % Dissolved torasemide ([1]; 50 minutes): 56.3% | % Dissolved torasemide ([1]; 60 minutes): 65.1%

Cc1cccc(Nc2ccncc2S(=O)(=O)NC(=O)NC(C)C)c1 [Mod. III, N-(1-methylethylaminocarbonyl)-4-(3-methyl-phenylamino)-3-pyridinesulfonamide]
dissolution profile (USP 23) in comparison to known crystal modifications I and II [2]: significant difference | dissolution profile (USP 23) in comparison to known crystal modifications I and II ([1]; in water): significant difference | % Dissolved torasemide ([1]; 0 minutes): 0% | % Dissolved torasemide ([1]; 10 minutes): 15.6% | % Dissolved torasemide ([1]; 20 minutes): 28.1% | % Dissolved torasemide ([1]; 30 minutes): 37.7% | % Dissolved torasemide ([1]; 40 minutes): 43.6% | % Dissolved torasemide ([1]; 50 minutes): 48.5% | % Dissolved torasemide ([1]; 60 minutes): 51.1% | stability of the crystal modification (no transformation into modification I or II) ([3]; normal storage conditions): stable | stability of the crystal modification (no transformation into modification I or II) ([3]; subjected to increased humidity): stable | IDR (Intrinsic Dissolution Rate) [4]: exceeds 1 mg cm^−2min^−1
